Where two headings read alike, the source gives them in different places.
Experiments:
MIN6 cells [1] = assay: MIN6 cell proliferation by Ki-67 staining and flow cytometry; format: cell-based, mouse; conditions: for Ki-67-positive cells, combination with GLP-1 / Ki-67-positive cells, combination with LY364947: MIN6; for Ki-67-positive cells, combination with GLP-1: GLP-1 5 nM
MIN6 cells [2] = assay: Insulin expression level by flow cytometry, MIN6; format: cell-based, mouse; conditions: for effect on insulin level over 12 days: MIN6, compound alone, 24 h incubation
INS-1E cells [3] = assay: Insulin expression level by flow cytometry, INS-1E; format: cell-based, rat; conditions: for effect on insulin level over 12 days: compound alone, 24 h incubation; for insulin level: harmine 1 μM
[4] = test system: hiPSC-derived beta cells organoids; assay: Glucose-stimulated insulin secretion by ELISA, hiPSC-derived pancreatic islet organoids; format: cell-based, human; conditions: 24 h incubation; for insulin secretion by organoids (GSIS, ELISA): compound alone
Method: Differentiation of hiPSC into iPSC-derived β-cell islets was carried out following the protocol established by Pellegrini et al.[50]. A day before differentiation, 1 × 10^4 cells were seeded on coated with Geltrex (Gibco) 12 wells plate in Essential 8 medium (Gibco) with Y-27632 10 µM (Abcam). The appropriate culture media and required components based on the protocol of Pellegrini with modifications, as published in Barzowska et al.[37].
Cells and organoids were homogenized in lysis buffer.
Figure 9 Quercetin and TGFβ inhibitor—LY364947 collectively support insulin release from hiPSC-derived pancreatic islet organoids. (A) The analysis of insulin secretion by ELISA assay. […] The organoids were immunostained for insulin (green) and cytoskeleton (red). The nuclei were stained with Hoechst 33258 (blue). Scale bars, 20 μm.

DYRK1A = molecular target: T1, DYRK1A (Homo sapiens, UniProt Q13627); assay: Cook activity assay (DYRK1A-catalyzed phosphorylation of DYRKtide, ADP production linked to PK/LDH NADH oxidation); format: biochemical; conditions: for IC50: read-out: IC50 (DYRK1A inhibition)
T1 construct: In the assay, the truncated DYRK1A protein restricted to the kinase domain (126–490) was used; made in house; host or cells: E. coli LOBSTR strain

[5] = test system: DYRK1A-dependent CyclinD1 phosphorylation; assay: CyclinD1 phosphorylation profile in transfected HEK293T cells (Western blot); format: cell-based; conditions: 10 μM, 6 h; HEK293T co-transfected with HA-CyclinD1 and Flag-DYRK1A
[6] = test system: DYRK1A-related NFAT signaling; assay: NFAT activity luciferase assay in HEK293T NFAT cells; format: cell-based; conditions: for increase in Renilla luciferase activity (NFAT reporter): 10 μM, 3 h pre-treatment, then PMA/IM 5 h, relative to DMSO
[7] = LogP determination by the shake-flask method; format: physicochemical; conditions: n-octanol/PBS
MIN6 cells [8] = assay: MTT cytotoxicity and cell survival assay, MIN6; conditions: MIN6, 24 h
INS-1E cells [9] = assay: MTT cytotoxicity and cell survival assay, INS-1E; conditions: for concentration range with increased cell viability (MTT): 24 h; for cytotoxic effect, combination with LY364947 or GLP-1: LY364947 […] or GLP-1 5 nM, gossypin […], rutin 1 μM
MIN6 cells [10] = assay: Glucose-stimulated insulin secretion (GSIS) quantified by ELISA, MIN6; conditions: GLP-1 5 nM
[11] = test system: DYRK1A-controlled calcineurin/NFAT pathway; assay: NFAT translocation assay (NFAT-GFP, mCherry-DYRK1A) in HEK293T cells; format: cell-based; conditions: 10 μM, 3 h, then IM 5 μM 1 h
[12] = 5 μM, 10 μM and 20 μM of compound, DMSO = 100%
[13] = kinase domain (126–490), compound 20 nM–200 μM, ATP (128 µM)

Compound	increase in proliferation rate (Ki-67-positive cells) vs control (MIN6 cells [1]; MIN6, compound alone)	effect on residual DYRK1A activity (DYRK1A; [12])	IC50 (DYRK1A; [13]) [µM]	CyclinD1 phosphorylation (p-CyclinD1 at Thr289) [5]	increase in Renilla luciferase activity (NFAT reporter) [6]	concentration range with increased cell viability (MTT) (MIN6 cells [8])	concentration range with increased cell viability (MTT) (INS-1E cells [9])	other results
c1ccc(-c2[nH]ncc2-c2ccnc3ccccc23)nc1 [LY364947]	up to 5%							effect on insulin level over 12 days (MIN6 cells [2]): less prominent but constant effect over the 12 days; effect on insulin level over 12 days (INS-1E cells [3]): less prominent but constant effect over the 12 days; insulin secretion by organoids (GSIS, ELISA) [4]: less pronounced effect
O=c1cc(-c2ccc(O)cc2)oc2cc(O[C@@H]3O[C@H](CO)[C@@H](O)[C@H](O)[C@H]3O)cc(O)c12 [apigetrin, 5-hydroxy-2-(4-hydroxyphenyl)-7[(2S,3R,4S,5S,6R)3,4,5-trihydroxy-6-(hydroxymethyl)oxan-2-yl]oxychromen-4-one]		no influence on DYRK1A activity						
O=c1cc(-c2ccccc2)oc2cc(O)c(O)c(O)c12 [baicalein, 5,6,7-trihydroxy-2-phenylchromen-4-one]	5%	decreased DYRK1A activity dose-dependently	3.6	significantly reduced CyclinD1 phosphorylation	threefold	0.1 to 2.5 µM	0.1 to 2.5 µM	logP at 15 min [7]: 2.55; Ki-67-positive cells, combination with GLP-1 (MIN6 cells [1]; control cells 32%): 55%; Ki-67-positive cells, combination with LY364947 (MIN6 cells [1]; control cells 32%): 48%; insulin secretion (GSIS, ELISA), combination with GLP-1 (MIN6 cells [10]): improve insulin secretion
COc1cc(-c2cc(=O)c3c(O)c(OC)c(OC)c(OC)c3o2)cc(OC)c1OC [gardenin A, 5-hydroxy-6,7,8-trimethoxy-2-(3,4,5-trimethoxyphenyl)chromen-4-one]		no influence on DYRK1A activity						
O=c1c(O)c(-c2ccc(O)c(O)c2)oc2c(O[C@@H]3O[C@H](CO)[C@@H](O)[C@H](O)[C@H]3O)c(O)cc(O)c12 [gossypin, 2-(3,4-dihydroxyphenyl)-3,5,7-trihydroxy-8-[(2S,3R,4S,5S,6R)-3,4,5-trihydroxy-6-(hydroxymethyl)oxan-2-yl]oxychromen-4-one]		decreased DYRK1A activity dose-dependently	1.4	significantly reduced CyclinD1 phosphorylation	twofold	did not influence cell viability	did not influence cell viability	LogP [7]: negative logP; cytotoxic effect, combination with LY364947 or GLP-1 (INS-1E cells [9]): slight cytotoxic effect
COc1ccc2c(c1)[nH]c1c(C)nccc12 [harmine]	about 20%					0.01 to 10 µM	1 to 2.5 µM	nuclear translocation of NFAT-GFP despite mCherry-DYRK1A overexpression [11]: induced nuclear translocation of NFAT-GFP; logP at 15 min [7]: 3.24; Ki-67-positive cells (MIN6 cells [1]; MIN6, compound alone, control cells 32%): 50%; Ki-67-positive cells, combination with GLP-1 (MIN6 cells [1]; control cells 32%): 55%; Ki-67-positive cells, combination with LY364947 (MIN6 cells [1]; control cells 32%): 58%; insulin level (MIN6 cells [2]; MIN6, day 12, control 24%, harmine 1 μM): 37%; effect on the GLP-1-induced increase in insulin production level, administered simultaneously with GLP-1 (MIN6 cells [2]; MIN6, GLP-1 5 nM): attenuated; effect on the GLP-1-induced increase in insulin production level, administered simultaneously with GLP-1 (INS-1E cells [3]; GLP-1 5 nM): attenuated; insulin level (INS-1E cells [3]; day 1, control 10%): 37%; insulin level (INS-1E cells [3]; day 5, control 28%): 34%; insulin secretion by organoids (GSIS, ELISA), with LY364947 addition [4]: enhanced by LY364947 addition; insulin secretion by organoids (GSIS, ELISA) [4]: highest insulin secretion level; concentrations at which mild toxicity was observed (MTT) (MIN6 cells [8]): higher than 50 μM
O=c1c(O)c(-c2ccc(O)cc2)oc2c(O)c(O)cc(O)c12 [herbacetin, 3,5,7,8-tetrahydroxy-2-(4-hydroxyphenyl)chromen-4-one]		decreased DYRK1A activity dose-dependently	6.3	Moderate inhibition of CyclinD1 phosphorylation		Identical results	Identical results	activation of NFAT response ([6]; 1 to 10 μM): only effective at the highest concentration tested; logP at 15 min [7]: 1.72
C[C@@H]1O[C@@H](Oc2c(-c3cc(O)c(O)c(O)c3)oc3cc(O)cc(O)c3c2=O)[C@H](O)[C@H](O)[C@H]1O [myricitrin, 5,7-dihydroxy-3-[(2S,3R,4R,5R,6S)-3,4,5-trihydroxy-6-methyloxan-2-yl]oxy-2-(3,4,5-trihydroxyphenyl)chromen-4-one]		no influence on DYRK1A activity						
O=c1c(O)c(-c2ccc(O)c(O)c2)oc2cc(O)cc(O)c12 [quercetin, 2-(3,4-dihydroxyphenyl)-3,5,7-trihydroxychromen-4-one]				significantly reduced CyclinD1 phosphorylation	threefold	0.25 to 5 µM	0.25 to 5 µM	effect on residual DYRK1A activity (DYRK1A): decreased DYRK1A activity dose-dependently; IC50 (DYRK1A): 1.7 µM; LogP [7]: 1.40; Ki-67-positive cells, combination with GLP-1 (MIN6 cells [1]; control cells 32%): modest effect; effect on insulin level over 12 days (MIN6 cells [2]): noticeable decrease in insulin level on day 12; effect on insulin level over 12 days (INS-1E cells [3]): noticeable decrease in insulin level on day 12; insulin secretion by organoids (GSIS, ELISA), with LY364947 addition [4]: enhanced by LY364947 addition; insulin secretion by organoids (GSIS, ELISA) [4]: significant increase in insulin secretion
C[C@@H]1O[C@@H](OC[C@H]2O[C@@H](Oc3c(-c4ccc(O)c(O)c4)oc4cc(O)cc(O)c4c3=O)[C@H](O)[C@@H](O)[C@@H]2O)[C@H](O)[C@H](O)[C@H]1O [rutin, 2-(3,4-dihydroxyphenyl)-5,7-dihydroxy-3-[(2S,3R,4S,5S,6R)-3,4,5-trihydroxy-6-[[(2R,3R,4R,5R,6S)-3,4,5-trihydroxy-6-methyloxan-2-yl]oxymethyl]oxan-2-yl]oxychromen-4-one]		decreased DYRK1A activity dose-dependently	4.5	significantly reduced CyclinD1 phosphorylation	twofold	did not influence cell viability	did not influence cell viability	LogP [7]: negative logP; cytotoxic effect, combination with LY364947 or GLP-1 (INS-1E cells [9]): slight cytotoxic effect
COc1ccc(-c2cc(=O)c3c(OC)c(OC)c(OC)cc3o2)cc1OC [sinensetin, 2-(3,4-dimethoxyphenyl)-5,6,7-trimethoxychromen-4-one]		no influence on DYRK1A activity						
GLP-1: GLP-1R agonist	up to 5%							effect on insulin level over 12 days (MIN6 cells [2]): robust increase in insulin production level in the late stage of the experiment (day 5–12); effect on insulin level over 12 days (INS-1E cells [3]): robust increase in insulin production level in the late stage of the experiment (day 5–12)

— publication PMC10593742, “Binding mechanism and biological effects of flavone DYRK1A inhibitors for the design of new antidiabetics” (Scientific Reports, 2023)
